{
  "source": "PubChem BioAssay AID1745844",
  "about": "(Carcinogenic Potency Database (CPDB), 2022)",
  "tested_on": "rodent lifetime carcinogenesis bioassay, tumor incidence TD50",
  "test": "carcinogenic potency in animals, long-term in vivo studies, CPDB compilation (AID 1745844)",
  "note": "Active and inactive are the calls of the source. How the calls were made is not given here.",
  "data": [
    {"molecule": "Cc1ccc(Cl)cc1N", "values": [
      {"measurement": "TD50", "setting": "mouse, strain B6C3F1, females, in feed, site: all sites + liver, lesion: hemangiosarcoma + hepatocellular adenoma + hepatocellular carcinoma, dosed 78 weeks, study length 91 weeks", "result": 143, "unit": "mg/kg/day"},
      {"measurement": "TD50", "setting": "mouse, strain B6C3F1, females, in feed, site: all sites, lesion: hemangiosarcoma, dosed 78 weeks, study length 91 weeks", "result": 373, "unit": "mg/kg/day"},
      {"measurement": "TD50", "setting": "mouse, strain B6C3F1, females, in feed, site: any site (literature study), lesion: several types, types named in the paper, dosed 78 weeks, study length 91 weeks", "result": 164, "unit": "mg/kg/day"},
      {"measurement": "TD50", "setting": "mouse, strain B6C3F1, females, in feed, site: liver, lesion: hepatocellular adenoma + hepatocellular carcinoma + neoplastic nodule, dosed 78 weeks, study length 91 weeks", "result": 180, "unit": "mg/kg/day"},
      {"measurement": "TD50", "setting": "mouse, strain B6C3F1, females, in feed, site: liver, lesion: hepatocellular adenoma + hepatocellular carcinoma, dosed 78 weeks, study length 91 weeks", "result": 180, "unit": "mg/kg/day"},
      {"measurement": "TD50", "setting": "mouse, strain B6C3F1, females, in feed, site: liver, lesion: hepatocellular carcinoma, dosed 78 weeks, study length 91 weeks", "result": 217, "unit": "mg/kg/day"},
      {"measurement": "TD50", "setting": "mouse, strain B6C3F1, females, in feed, site: lung, lesion: alveolar/bronchiolar adenoma + alveolar/bronchiolar carcinoma, dosed 78 weeks, study length 91 weeks", "result": 7480, "unit": "mg/kg/day"},
      {"measurement": "TD50", "setting": "mouse, strain B6C3F1, males, in feed, site: all sites + liver, lesion: hemangiosarcoma + hepatocellular adenoma + hepatocellular carcinoma, dosed 78 weeks, study length 91 weeks", "result": 134, "unit": "mg/kg/day"},
      {"measurement": "TD50", "setting": "mouse, strain B6C3F1, males, in feed, site: all sites, lesion: hemangiosarcoma, dosed 78 weeks, study length 91 weeks", "result": 213, "unit": "mg/kg/day"},
      {"measurement": "TD50", "setting": "mouse, strain B6C3F1, males, in feed, site: any site (literature study), lesion: several types, types named in the paper, dosed 78 weeks, study length 91 weeks", "result": 132, "unit": "mg/kg/day"},
      {"measurement": "TD50", "setting": "mouse, strain B6C3F1, males, in feed, site: liver, lesion: hepatocellular adenoma + hepatocellular carcinoma + neoplastic nodule, dosed 78 weeks, study length 91 weeks", "result": 249, "unit": "mg/kg/day"},
      {"measurement": "TD50", "setting": "mouse, strain B6C3F1, males, in feed, site: liver, lesion: hepatocellular adenoma + hepatocellular carcinoma, dosed 78 weeks, study length 91 weeks", "result": 249, "unit": "mg/kg/day"},
      {"measurement": "TD50", "setting": "mouse, strain B6C3F1, males, in feed, site: liver, lesion: hepatocellular carcinoma, dosed 78 weeks, study length 91 weeks", "result": 271, "unit": "mg/kg/day"},
      {"measurement": "carcinogen call", "setting": "rat, strain Fischer 344, females, in feed, site: any site (literature study), lesion: several types, types named in the paper, dosed 78 weeks, study length 103 weeks", "result": "negative (inactive)"},
      {"measurement": "TD50", "setting": "rat, strain Fischer 344, males, in feed, site: adrenal gland, lesion: pheochromocytoma, dosed 78 weeks, study length 103 weeks", "result": "714 mg/kg/day (inactive)"},
      {"measurement": "TD50", "setting": "rat, strain Fischer 344, males, in feed, site: any site (literature study), lesion: several types, types named in the paper, dosed 78 weeks, study length 103 weeks", "result": 1020, "unit": "mg/kg/day"},
      {"measurement": "TD50", "setting": "rat, strain Fischer 344, males, in feed, site: liver, lesion: hepatocellular adenoma + hepatocellular carcinoma + neoplastic nodule, dosed 78 weeks, study length 103 weeks", "result": 3340, "unit": "mg/kg/day"}
    ]},
    {"molecule": "Nc1ccc(S(=O)(=O)c2ccc(N)cc2)cc1", "values": [
      {"measurement": "carcinogen call", "setting": "mouse, strain B6C3F1, females, in feed, site: any site (literature study), lesion: several types, types named in the paper, dosed 78 weeks, study length 107 weeks", "result": "negative (inactive)"},
      {"measurement": "carcinogen call", "setting": "mouse, strain B6C3F1, males, in feed, site: any site (literature study), lesion: several types, types named in the paper, dosed 78 weeks, study length 107 weeks", "result": "negative (inactive)"},
      {"measurement": "carcinogen call", "setting": "rat, strain Fischer 344, females, in feed, site: any site (literature study), lesion: several types, types named in the paper, dosed 78 weeks, study length 105 weeks", "result": "negative (inactive)"},
      {"measurement": "TD50", "setting": "rat, strain Fischer 344, males, in feed, site: all sites, lesion: lymphoma, dosed 78 weeks, study length 104 weeks", "result": 50.1, "unit": "mg/kg/day"},
      {"measurement": "TD50", "setting": "rat, strain Fischer 344, males, in feed, site: any site (literature study), lesion: several types, types named in the paper, dosed 78 weeks, study length 104 weeks", "result": 22.4, "unit": "mg/kg/day"},
      {"measurement": "TD50", "setting": "rat, strain Fischer 344, males, in feed, site: peritoneum, lesion: fibrosarcoma + sarcoma, NOS, dosed 78 weeks, study length 104 weeks", "result": 56.3, "unit": "mg/kg/day"},
      {"measurement": "TD50", "setting": "rat, strain Fischer 344, males, in feed, site: peritoneum, lesion: fibrosarcoma, dosed 78 weeks, study length 104 weeks", "result": 148, "unit": "mg/kg/day"},
      {"measurement": "TD50", "setting": "rat, strain Fischer 344, males, in feed, site: peritoneum, lesion: sarcoma, NOS, dosed 78 weeks, study length 104 weeks", "result": 91.3, "unit": "mg/kg/day"},
      {"measurement": "TD50", "setting": "rat, strain Fischer 344, males, in feed, site: spleen, lesion: fibroma, dosed 78 weeks, study length 104 weeks", "result": 28.5, "unit": "mg/kg/day"},
      {"measurement": "TD50", "setting": "rat, strain Fischer 344, males, in feed, site: spleen, lesion: fibrosarcoma + fibroma + sarcoma, NOS, dosed 78 weeks, study length 104 weeks", "result": 22.4, "unit": "mg/kg/day"},
      {"measurement": "TD50", "setting": "rat, strain Fischer 344, males, in feed, site: spleen, lesion: fibrosarcoma, dosed 78 weeks, study length 104 weeks", "result": 167, "unit": "mg/kg/day"},
      {"measurement": "TD50", "setting": "rat, strain Fischer 344, males, in feed, site: spleen, lesion: sarcoma, NOS, dosed 78 weeks, study length 104 weeks", "result": 170, "unit": "mg/kg/day"}
    ]},
    {"molecule": "Cc1cnc(NC(=O)C2=C(O)c3ccccc3S(=O)(=O)N2C)s1", "values": [
      {"measurement": "carcinogen call", "setting": "rat, strain Wistar, females, by gavage, site: stomach, lesion: one or several types, types not named, dosed 52 weeks, study length 52 weeks", "result": "negative (inactive)"},
      {"measurement": "carcinogen call", "setting": "rat, strain Wistar, males, by gavage, site: stomach, lesion: one or several types, types not named, dosed 52 weeks, study length 52 weeks", "result": "negative (inactive)"}
    ]},
    {"molecule": "CC[C@]1(O)C[C@@H]2CN(CCc3c([nH]c4ccccc34)[C@@](C(=O)OC)(c3cc4c(cc3OC)N(C)[C@H]3[C@@](O)(C(=O)OC)[C@H](OC(C)=O)[C@]5(CC)C=CCN6CC[C@]43[C@@H]65)C2)C1", "values": [
      {"measurement": "carcinogen call", "setting": "rat, strain BR 46, males, i.v., site: any site (literature study), lesion: several types, types named in the paper, dosed 52 weeks, study length 104 weeks", "result": "negative (inactive)"}
    ]},
    {"molecule": "NC(=S)NNC=O", "values": [
      {"measurement": "TD50", "setting": "rat, strain Sprague-Dawley, females, in feed, site: any site (literature study), lesion: several types, types named in the paper, dosed 46 weeks, study length 64 weeks", "result": "140 mg/kg/day (inactive)"}
    ]},
    {"molecule": "[O]=[W](=[O])([OH])[OH]", "values": [
      {"measurement": "carcinogen call", "setting": "rat, strain Long-Evans BLU:(LE), females, in drinking water, site: any site (literature study), lesion: malignant tumor, dosed 149 weeks, study length 149 weeks", "result": "negative (inactive)"},
      {"measurement": "carcinogen call", "setting": "rat, strain Long-Evans BLU:(LE), females, in drinking water, site: any site (literature study), lesion: several types, types named in the paper, dosed 149 weeks, study length 149 weeks", "result": "negative (inactive)"},
      {"measurement": "TD50", "setting": "rat, strain Long-Evans BLU:(LE), males, in drinking water, site: any site (literature study), lesion: malignant tumor, dosed 136 weeks, study length 136 weeks", "result": "87.7 mg/kg/day (inactive)"},
      {"measurement": "TD50", "setting": "rat, strain Long-Evans BLU:(LE), males, in drinking water, site: any site (literature study), lesion: several types, types named in the paper, dosed 136 weeks, study length 136 weeks", "result": "40.1 mg/kg/day (inactive)"}
    ]}
  ]
}
